The text below walks through data of publication PMC9512246, “GAPDH mediates drug resistance and metabolism in Plasmodium falciparum malaria parasites” (PLoS Pathogens, 2022).

“And” between values parts separate entries of the source, which are not always exact repeats. Equal values may be shown once.

Experiment [1] concerns the target T1, glyceraldehyde 3-phosphate dehydrogenase (PfGAPDH, wild-type) (Plasmodium falciparum, UniProt Q8IKK7).
T1 construct: gene PF3D7_1462800; recombinant PfGAPDH, N-terminal 6x-His tag, N-term and C-term modifications for improved solubility
As to the kind of experiment: Michaelis-Menten kinetics of purified enzyme (Abs340, NADH formation). The experiment is classed as biochemical.

For experiment [2], the target named is T1, glyceraldehyde 3-phosphate dehydrogenase (PfGAPDH, wild-type). As to the kind of experiment: heme titration by absorption spectroscopy (purified protein); enzyme inhibition also measured, EC50 =[…]. The experiment is classed as binding.
Experiment [3] has as its target T2, glyceraldehyde 3-phosphate dehydrogenase (PfGAPDH I209T) (Plasmodium falciparum, UniProt Q8IKK7, I209T).
T2 construct: gene PF3D7_1462800; recombinant PfGAPDH, N-terminal 6x-His tag, N-term and C-term modifications for improved solubility
Put plainly: heme titration by absorption spectroscopy (purified protein). It counts as binding.

Experiment [4] addresses Plasmodium falciparum glyceraldehyde 3-phosphate dehydrogenase I209T variant (recombinant) (Plasmodium falciparum) (UniProt Q8IKK7). Put plainly: SEC; analytical size exclusion chromatography; 1mg of purified protein in 1mL of FPLC buffer (100mM Tris-HCl pH 7.5, 1mM MgCl2, 1mM DTT, 10% w/v glycerol); all proteins prepped the same day and dialyzed in the same buffer the night before at 4°C. For orientation: SEC sorts molecules by how far they enter the pores of the column.

Experiment [5] concerns the target Plasmodium falciparum glyceraldehyde 3-phosphate dehydrogenase V238A variant (recombinant) (Plasmodium falciparum) (UniProt Q8IKK7). Described as above.
Experiment [6] deals with Plasmodium falciparum glyceraldehyde 3-phosphate dehydrogenase, wild type (recombinant) (Plasmodium falciparum) (UniProt Q8IKK7). The description is as above.

Consider `O=C[C@H](O)COP(=O)(O)O` [D-glyceraldehyde 3-phosphate], for which the “Michaelis-Menten kinetics of purified enzyme (Abs340, NADH formation)” value in experiment [1] was “FSM-resistant and wild-type enzymes shared Michaelis-Menten constants for all three substrates NAD+, GAP, and Pi”.

On to `NC(=O)c1ccc[n+]([C@@H]2O[C@H](COP(=O)([O-])OP(=O)(O)OC[C@H]3O[C@@H](n4cnc5c(N)ncnc54)[C@H](O)[C@@H]3O)[C@@H](O)[C@H]2O)c1` [NAD+], for which the “Michaelis-Menten kinetics of purified enzyme (Abs340, NADH formation)” value in experiment [1] is “FSM-resistant and wild-type enzymes shared Michaelis-Menten constants for all three substrates NAD+, GAP, and Pi”.

Take `C=CC1=C(C)C2=Cc3c(C=C)c(C)c4[n]3[Fe][n]3c(c(C)c(CCC(=O)O)c3=CC3=NC(=C4)C(C)=C3CCC(=O)O)=CC1=N2` [heme]: the Kd (commonly the concentration at which binding is half-saturated) is 0.74 µM in experiment [2] and 1.84 µM in experiment [3].

Consider “Plasmodium falciparum glyceraldehyde 3-phosphate dehydrogenase I209T variant (recombinant) (from UniProt Q8IKK7 4-335) (enzyme)”, for which, in experiment [4], the stoichiometry N – broadly, the number of molecules, sites or subunits per partner or assembly – was 4 and 2.

In the case of “Plasmodium falciparum glyceraldehyde 3-phosphate dehydrogenase V238A variant (recombinant) (from UniProt Q8IKK7 4-335) (enzyme)”, the stoichiometry N in experiment [5] is 4 and 2.

As for “Plasmodium falciparum glyceraldehyde 3-phosphate dehydrogenase, wild type (recombinant) (from UniProt Q8IKK7 4-335) (enzyme)”, in experiment [6], the stoichiometry N turned out to be 4.
